Laboratory results published in patent US10183936B2, “Hepatitis B core protein allosteric modulators” (priority 2014, dated 2019).

Key:
AD38 cells = experiment: Viability of AD38 cells (Promega CellTiter-Glo) at the end of compound treatment; format: cell-based; conditions: 10 μM compound, 6 days, luminescence normalized against DMSO control wells (controls being 100%)
Method: (§1) Example 56: Assay Measuring Activity of Compounds on Viral Production in and on Viability of AD38 Cells
(§2) AD38 cells were then re-suspended with 10 mL of Treatment Medium and counted. Wells of a collagen coated 96-well NUNC microtiter plate were seeded at 50,000/well in 180 μL of Treatment Medium, and 20 μL of in treatment media with either 10% DMSO (Control) or a 10× solution of compound in 10% DMSO was added. Plates were incubated for 6 days at 37° C.
At the end of compound treatment period cell viability was assessed using a Promega CellTiter-Glo protocol. All supernatant was removed the previously treated 96-well microtiter plate, and 50 μL Tetracycline-free treatment medium (DMEM/F12 (1:1), lx Pen/step (cat#: 30-002-CL, Mediatech, Inc), with 2% FBS, Tet-system approved (cat#: 631106, Clontech), and 1% DMSO was added back to each well. Another 50 μL of CellTiter-Glo reagent solution (Promega, G7573) was then added at room temperature and the contents mixed for 2 minutes on an orbital shaker to induce cell lysis. This was followed by incubation at room temperature for 10 minutes to stabilize the luminescent signal. The luminescence was recorded for 0.2 seconds per well on a Tecan multimode platereader (Infinite M1000 pro). The luminescent signal from each well was normalized against that of untreated (DMSO) control wells. All results were reported percent viability (with controls being 100%).

[1] = test system: HBV viral production in AD38 cells; experiment: Viral load production in AD38 cells by quantitative PCR of the HBV core sequence in supernatant; format: cell-based; conditions: Hepatitis B virus, 144 h; 10 μM compound, 6 days at 37° C., viral load in supernatant compared against DMSO control wells; read-out: AD38 Viral Load (CpAM/DMSO %) at 10 μM
Method: as §1, §2
Viral load production was assayed by quantitative PCR of the core sequence. Briefly, 5 μL of clarified supematant was added to a PCR reaction mixture that contained forward primers HBV-f 5′-CTGTGCCTTGGGTGGCTTT-3′, Reverse primers HBV-r 5′-[…]-3′ and Fluorescent TaqMan™ Probes HBV-probe 5′-FAM/AGCTCCAAA/ZEN/[…]/3IABkFQ-3′ in Quanta Biosciences PerfeCTa® qPCR Toughmix®, and was subsequently on an Applied Biosystems VIIA7 in a final volume of 20 μL. The PCR mixture was incubated at 45° C. for 5 minutes, then 95° C. for 10 min, followed by 40 cycles of 10 seconds at 95° C. and 20 seconds at 60° C. Viral load was quantitated against known standards by using ViiA™ 7 Software. Viral load in the supematant from wells with treated cells were compared against viral load in supernatant from DMSO control wells (≥3 per plate).

Compound: NS(=O)(=O)c1ccc(CCNC(=O)c2ccc3c(c2)NC(=O)c2ccccc2S3)cc1 [Compound 1101]
- AD38 Viability Normalized Result (CPAM/DMSO %) at 10 μM (AD38 cells): 107%
- activity at 10 µM [1]: 15%

Compound: CN(C)S(=O)(=O)c1ccc(CCNC(=O)c2ccc3c(c2)NC(=O)c2ccccc2S3)cc1 [Compound 1102]
- AD38 Viability Normalized Result (CPAM/DMSO %) at 10 μM (AD38 cells): 100%
- activity at 10 µM [1]: 1%

Compound: CS(=O)(=O)c1ccc(CCNC(=O)c2ccc3c(c2)NC(=O)c2ccccc2S3)cc1 [Compound 1103]
- AD38 Viability Normalized Result (CPAM/DMSO %) at 10 μM (AD38 cells): 87%
- activity at 10 µM [1]: 2%

Compound: O=C(NCCc1ccccc1)c1ccc2c(c1)NC(=O)c1ccccc1S2 [Compound 1104]
- AD38 Viability Normalized Result (CPAM/DMSO %) at 10 μM (AD38 cells): 85%
- activity at 10 µM [1]: 1%

Compound: O=C(NCCC1CCCCC1)c1ccc2c(c1)NC(=O)c1ccccc1S2 [Compound 1105]
- AD38 Viability Normalized Result (CPAM/DMSO %) at 10 μM (AD38 cells): 101%
- activity at 10 µM [1]: 1%

Compound: O=C(NCc1ccccc1)c1ccc2c(c1)NC(=O)c1ccccc1S2 [Compound 1107]
- AD38 Viability Normalized Result (CPAM/DMSO %) at 10 μM (AD38 cells): 106%
- activity at 10 µM [1]: 2%

Compound: O=C(NCCCc1ccccc1)c1ccc2c(c1)NC(=O)c1ccccc1S2 [Compound 1108]
- AD38 Viability Normalized Result (CPAM/DMSO %) at 10 μM (AD38 cells): 105%
- activity at 10 µM [1]: 1%

Compound: O=C(NCCCCc1ccccc1)c1ccc2c(c1)NC(=O)c1ccccc1S2 [Compound 1109]
- AD38 Viability Normalized Result (CPAM/DMSO %) at 10 μM (AD38 cells): 99%
- activity at 10 µM [1]: 6%

Compound: O=C(NCCc1ccc2ccccc2c1)c1ccc2c(c1)NC(=O)c1ccccc1S2 [Compound 1110]
- AD38 Viability Normalized Result (CPAM/DMSO %) at 10 μM (AD38 cells): 119%
- activity at 10 µM [1]: 2%

Compound: O=C(NCCc1ccc(-c2ccccc2)cc1)c1ccc2c(c1)NC(=O)c1ccccc1S2 [Compound 1111]
- AD38 Viability Normalized Result (CPAM/DMSO %) at 10 μM (AD38 cells): 89%
- activity at 10 µM [1]: 2%

Compound: O=C(NCc1ccc(-c2ccccc2)cc1)c1ccc2c(c1)NC(=O)c1ccccc1S2 [Compound 1112]
- AD38 Viability Normalized Result (CPAM/DMSO %) at 10 μM (AD38 cells): 73%
- activity at 10 µM [1]: 4%

Compound: O=C(NCCc1ccc(F)cc1)c1ccc2c(c1)NC(=O)c1ccccc1S2 [Compound 1113]
- AD38 Viability Normalized Result (CPAM/DMSO %) at 10 μM (AD38 cells): 99%
- activity at 10 µM [1]: 1%

Compound: COc1ccc(CCNC(=O)c2ccc3c(c2)NC(=O)c2ccccc2S3)cc1 [Compound 1114]
- AD38 Viability Normalized Result (CPAM/DMSO %) at 10 μM (AD38 cells): 104%
- activity at 10 µM [1]: 1%

Compound: O=C(NCCc1ccc(O)cc1)c1ccc2c(c1)NC(=O)c1ccccc1S2 [Compound 1115]
- AD38 Viability Normalized Result (CPAM/DMSO %) at 10 μM (AD38 cells): 106%
- activity at 10 µM [1]: 1%

Compound: COC(=O)c1ccc(CCNC(=O)c2ccc3c(c2)NC(=O)c2ccccc2S3)cc1 [Compound 1117]
- AD38 Viability Normalized Result (CPAM/DMSO %) at 10 μM (AD38 cells): 108%
- activity at 10 µM [1]: 67%

Compound: O=C(NCCc1cccc(O)c1)c1ccc2c(c1)NC(=O)c1ccccc1S2 [Compound 1118]
- AD38 Viability Normalized Result (CPAM/DMSO %) at 10 μM (AD38 cells): 95%
- activity at 10 µM [1]: 61%

Compound: N#Cc1ccc(CCNC(=O)c2ccc3c(c2)NC(=O)c2ccccc2S3)cc1 [Compound 1120]
- AD38 Viability Normalized Result (CPAM/DMSO %) at 10 μM (AD38 cells): 94%
- activity at 10 µM [1]: 7%

Compound: O=C(NCCc1ccc(N2CCCCC2)cc1)c1ccc2c(c1)NC(=O)c1ccccc1S2 [Compound 1121]
- AD38 Viability Normalized Result (CPAM/DMSO %) at 10 μM (AD38 cells): 109%
- activity at 10 µM [1]: 6%

Compound: O=C(NCCc1ccc(Br)cc1)c1ccc2c(c1)NC(=O)c1ccccc1S2 [Compound 1122]
- AD38 Viability Normalized Result (CPAM/DMSO %) at 10 μM (AD38 cells): 86%
- activity at 10 µM [1]: 21%

Compound: CCCCNC(=O)c1ccc2c(c1)NC(=O)c1ccccc1S2 [Compound 1123]
- AD38 Viability Normalized Result (CPAM/DMSO %) at 10 μM (AD38 cells): 95%
- activity at 10 µM [1]: 62%

Compound: COc1cccc(CCNC(=O)c2ccc3c(c2)NC(=O)c2ccccc2S3)c1 [Compound 1124]
- AD38 Viability Normalized Result (CPAM/DMSO %) at 10 μM (AD38 cells): 99%
- activity at 10 µM [1]: 80%

Compound: COc1ccc(CCNC(=O)c2ccc3c(c2)NC(=O)c2ccccc2S3)cc1OC [Compound 1125]
- AD38 Viability Normalized Result (CPAM/DMSO %) at 10 μM (AD38 cells): 108%
- activity at 10 µM [1]: 20%

Compound: COc1ccccc1CCNC(=O)c1ccc2c(c1)NC(=O)c1ccccc1S2 [Compound 1127]
- AD38 Viability Normalized Result (CPAM/DMSO %) at 10 μM (AD38 cells): 94%
- activity at 10 µM [1]: 22%

Compound: O=C(NCCc1cccc(F)c1)c1ccc2c(c1)NC(=O)c1ccccc1S2 [Compound 1130]
- AD38 Viability Normalized Result (CPAM/DMSO %) at 10 μM (AD38 cells): 101%
- activity at 10 µM [1]: 2%

Compound: CN1C(=O)c2ccccc2Sc2ccc(C(=O)NCCc3cccc(O)c3)cc21 [Compound 1133]
- AD38 Viability Normalized Result (CPAM/DMSO %) at 10 μM (AD38 cells): 99%
- activity at 10 µM [1]: 94%

Compound: O=C(NCCCCc1ccncc1)c1ccc2c(c1)NC(=O)c1ccccc1S2 [Compound 1149]
- AD38 Viability Normalized Result (CPAM/DMSO %) at 10 μM (AD38 cells): 118%
- activity at 10 µM [1]: 5%

Compound: O=C(NCCCCC1CCCCC1)c1ccc2c(c1)NC(=O)c1ccccc1S2 [Compound 1150]
- AD38 Viability Normalized Result (CPAM/DMSO %) at 10 μM (AD38 cells): 22%
- activity at 10 µM [1]: 1%

Compound: CCCCCCNC(=O)c1ccc2c(c1)NC(=O)c1ccccc1S2 [Compound 1151]
- AD38 Viability Normalized Result (CPAM/DMSO %) at 10 μM (AD38 cells): 50%
- activity at 10 µM [1]: 1%

Compound: CCCCCCCCNC(=O)c1ccc2c(c1)NC(=O)c1ccccc1S2 [Compound 1152]
- AD38 Viability Normalized Result (CPAM/DMSO %) at 10 μM (AD38 cells): 45%
- activity at 10 µM [1]: 1%

Compound: CN(C)CCOc1ccc(CCNC(=O)c2ccc3c(c2)NC(=O)c2ccccc2S3)cc1 [Compound 1154]
- AD38 Viability Normalized Result (CPAM/DMSO %) at 10 μM (AD38 cells): 50%
- activity at 10 µM [1]: 90%

Compound: CN(C)CCCOc1ccc(CCNC(=O)c2ccc3c(c2)NC(=O)c2ccccc2S3)cc1.Cl [Compound 1155]
- AD38 Viability Normalized Result (CPAM/DMSO %) at 10 μM (AD38 cells): 103%
- activity at 10 µM [1]: 18%

Compound: CCOc1ccccc1CCNC(=O)c1ccc2c(c1)NC(=O)c1ccccc1S2 [Compound 1156]
- AD38 Viability Normalized Result (CPAM/DMSO %) at 10 μM (AD38 cells): 106%
- activity at 10 µM [1]: 16%

Compound: CCOc1cccc(CCNC(=O)c2ccc3c(c2)NC(=O)c2ccccc2S3)c1 [Compound 1157]
- AD38 Viability Normalized Result (CPAM/DMSO %) at 10 μM (AD38 cells): 48%
- activity at 10 µM [1]: 1%

Compound: Cc1ccccc1CCNC(=O)c1ccc2c(c1)NC(=O)c1ccccc1S2 [Compound 1158]
- AD38 Viability Normalized Result (CPAM/DMSO %) at 10 μM (AD38 cells): 120%
- activity at 10 µM [1]: 37%

Compound: COc1ccccc1CNC(=O)c1ccc2c(c1)NC(=O)c1ccccc1S2 [Compound 1159]
- AD38 Viability Normalized Result (CPAM/DMSO %) at 10 μM (AD38 cells): 92%
- activity at 10 µM [1]: 8%

Compound: COc1cccc(CNC(=O)c2ccc3c(c2)NC(=O)c2ccccc2S3)c1 [Compound 1160]
- AD38 Viability Normalized Result (CPAM/DMSO %) at 10 μM (AD38 cells): 105%
- activity at 10 µM [1]: 2%

Compound: COc1ccc(CNC(=O)c2ccc3c(c2)NC(=O)c2ccccc2S3)cc1 [Compound 1161]
- AD38 Viability Normalized Result (CPAM/DMSO %) at 10 μM (AD38 cells): 99%
- activity at 10 µM [1]: 1%

Compound: O=C(NCc1ccc(OC(F)(F)F)cc1)c1ccc2c(c1)NC(=O)c1ccccc1S2 [Compound 1162]
- AD38 Viability Normalized Result (CPAM/DMSO %) at 10 μM (AD38 cells): 99%
- activity at 10 µM [1]: 61%

Compound: Cc1cccc(CNC(=O)c2ccc3c(c2)NC(=O)c2ccccc2S3)c1 [Compound 1163]
- AD38 Viability Normalized Result (CPAM/DMSO %) at 10 μM (AD38 cells): 104%
- activity at 10 µM [1]: 3%

Compound: Cc1ccc(CNC(=O)c2ccc3c(c2)NC(=O)c2ccccc2S3)cc1 [Compound 1164]
- AD38 Viability Normalized Result (CPAM/DMSO %) at 10 μM (AD38 cells): 103%
- activity at 10 µM [1]: 27%

Compound: CC(C)(C)c1ccc(CNC(=O)c2ccc3c(c2)NC(=O)c2ccccc2S3)cc1 [Compound 1165]
- AD38 Viability Normalized Result (CPAM/DMSO %) at 10 μM (AD38 cells): 82%
- activity at 10 µM [1]: 5%

Compound: O=C(NCc1cccc(C(F)(F)F)c1)c1ccc2c(c1)NC(=O)c1ccccc1S2 [Compound 1166]
- AD38 Viability Normalized Result (CPAM/DMSO %) at 10 μM (AD38 cells): 119%
- activity at 10 µM [1]: 10%
